Values quoted from earlier work as cited in patent US20140148379A1, “Control of Unwanted Bacteria in Fermentation Systems with Bacteriocin” (priority 2012, published 2014).

System: Staphylococcus aureus
Settings: nisin combined with the endolysin produced by Staphylococcal phage; contaminated milk

For nisin, the effect of combination is listed as “strong synergistic effect”.
